Experiment [1] relates to C. auris 8984. In words: Candida panel MIC, serial dilution in 96-well plates. The note with it: Candidozyma auris, 8984; Table 4, extended panel; 24 hours, ≥50% inhibition; read-out: MIC C. auris 8984. The experiment is classed as cell-based, Candida auris. The procedure: (§1) The minimum inhibitory concentration of test compounds were determined in a panel of Candida species (see Table 4 below), using the a serial dilution method in 96-well plates using the following protocol.
(§2) Starter cultures of fungal strains to be tested were grown in 3 mL of RPMI 2% glucose media incubated at 37° C. with shaking at 200 rpm overnight. The culture media used was 900 mL H2O; 10.4 g RPMI 1640 (with L-glutamine and a pH indicator but without bicarbonate); 34.5 g MOPS and 18 g glucose. The pH of the media was adjusted to 7.0 with 1 M sodium hydroxide.
(§3) Solutions of the compound to be tested were prepared by dissolving the compound in DMSO and subsequently into media to the desired concentrations. […] The last two rows of each plate were control rows containing the culture media alone and the media plus fungi.
(§4) The fungi starter cultures were diluted 1:10 in water in cuvettes. This was then further diluted to an optical density (OD600) of 0.01 in media. 100 μL of the fungi was added to each well giving a starting concentration of fungus of 0.5-5×10^5/mL. One species of fungus was used on each plate. The plates were then held at 37° C. for 24 hours.
(§5) A plate reader was used to measure growth in each well at OD530 nm and the MIC was determined for each test compound. The MIC is defined as the lowest concentration giving rise to inhibition of ≥50% of that of the drug-free control well containing the fungus and media.
(§6) The Candida auris strains shown in Table 7 were either taken from the National Collection of Pathogenic Fungi (NCPF) or collected as part of ongoing surveillance studies. The strains were characterised as follows.

Experiment [2] concerns C. auris 8977. Described as above. The experiment is classed as cell-based, Candida auris. The note with it: Candidozyma auris, 8977; Table 4, extended panel; 24 hours, ≥50% inhibition; read-out: MIC C. auris 8977. The procedure:
as §1, §2, §3, §4, §5, §6

Experiment [3] has as its system C. auris 8971. The description is as above. The note with it: Candidozyma auris, 8971; Table 4, extended panel; 24 hours, ≥50% inhibition; read-out: MIC C. auris 8971. The experiment is classed as cell-based, Candida auris. The procedure: as §1, §2, §3, §4, §5, §6
Experiment [4] relates to Candida auris TDG2506. In words: microbe, parasite or virus in culture. The experiment is classed as cell-based. The note with it: Candidozyma auris, TDG2506; Table 4, extended panel; 24 hours, ≥50% inhibition; read-out: MIC Candida auris TDG2506. On the procedure: as §1, §2, §3, §4, §5, §6
Experiment [5] has as its system Candida auris TDG2211. In words: microbe, parasite or virus in culture. The following applies: Candidozyma auris, TDG2211; Table 4, extended panel; 24 hours, ≥50% inhibition; read-out: MIC Candida auris TDG2211. The experiment is classed as cell-based. On the procedure: as §1, §2, §3, §4, §5, §6
The test system of experiment [6] is C. krusei NCPF3876. In words: microbe, parasite or virus in culture. The experiment is classed as cell-based, Candida krusei. The following applies: Pichia kudriavzevii, NCPF3876; Table 4, common panel; 24 hours, ≥50% inhibition; read-out: MIC C. krusei NCPF3876. On the procedure:
as §1, §2, §3, §4, §5

The test system of experiment [7] is Candida auris TDG2512. In words: Candida panel MIC, serial dilution in 96-well plates. The experiment is classed as cell-based. The note with it: Candidozyma auris, read-out: MIC Candida auris TDG2512. The procedure: as §1, §2
(§7) Solutions of the compound to be tested were prepared by dissolving the compound in DMSO and subsequently into media to the desired concentrations. 200 μL of compound solution was then added to the wells of the 96-well plate using a serial dilution method row-by row of the plate to give a compound concentration gradient across the plate of from 128 μg/mL to 0.25 μg/mL. The last two rows of each plate were control rows containing the culture media alone and the media plus fungi.
as §4, §5

The subject of experiment [8] is C. tropicalis NCPF8760. The experiment is described as above. The following applies: NCPF8760, Table 4, common panel, 24 hours, ≥50% inhibition, read-out: MIC C. tropicalis NCPF8760. The experiment is classed as cell-based. The procedure:
as §1, §2, §7, §4, §5

In experiment [9] the test system is Candida auris TDG1102. The experiment is described as above. The experiment is classed as cell-based. The note with it: Candidozyma auris, TDG1102; Table 4, extended panel; 24 hours, ≥50% inhibition; read-out: MIC Candida auris TDG1102. The procedure: as §1, §2, §7, §4, §5
Experiment [10] has as its system C. auris TDG1912. Described as above. The experiment is classed as cell-based. The following applies: Candidozyma auris, read-out: MIC C. auris TDG1912. The procedure:
as §1, §2, §7, §4, §5

The test system of experiment [11] is C. glabrata NCPF8018. The description is as above. The experiment is classed as cell-based, Candida glabrata. The following applies: Nakaseomyces glabratus, NCPF8018; Table 4, common panel; 24 hours, ≥50% inhibition; read-out: MIC C. glabrata NCPF8018. The procedure:
as §1, §2, §3, §4, §5

Experiment [12] concerns C. albicans NCPF3281. The experiment is described as above. The experiment is classed as cell-based, Candida albicans. The note with it: Candida albicans, read-out: MIC C. albicans NCPF3281. On the procedure:
as §1, §2, §7, §4, §5

Experiment [13] has as its system C. parapsilosis NCPF3209. In words: microbe, parasite or virus in culture. The experiment is classed as cell-based, Candida parapsilosis. The following applies: Lodderomyces parapsilosis, NCPF3209; Table 4, common panel; 24 hours, ≥50% inhibition; read-out: MIC C. parapsilosis NCPF3209. The procedure:
as §1, §2, §3, §4, §5

Where [14] appears, read: TDG2512, Table 4, extended panel, 24 hours, ≥50% inhibition.
[15] abbreviates: TDG1912, Table 4, 24 hours, ≥50% inhibition.
The mark [16] stands for this setting: NCPF3281, Table 4, common panel, 24 hours, ≥50% inhibition.

SMILES strings stand for the structures. ≈ marks a conversion by molar mass, not a printed value. Like-named read-outs stand apart in the source and are kept apart here.

Take `OC(CN1CCCN(c2ccc(OCCN3CCOCC3)cc2)CC1)(Cn1cncn1)c1ccc(F)cc1F` (stereo not drawn) [Example 89]: the MIC in experiment [1] is 4 to 8 µg/mL (≈ 7.37 to 14.7 µM); in experiment [2] it was 0.25 µg/mL (≈ 0.461 µM); in [3], 0.25 µg/mL (≈ 0.461 µM); in [4], 4 to 8 µg/mL (≈ 7.37 to 14.7 µM); in [5], 0.5 µg/mL (≈ 0.921 µM); in experiment [6], 0.5 µg/mL (≈ 0.921 µM). Moreover, the MIC in experiment [7] (TDG2512, 24 h) turned out to be 0.25 µg/mL (≈ 0.461 µM); in experiment [8], 2 µg/mL (≈ 3.69 µM); in [9], 1 µg/mL (≈ 1.84 µM); in experiment [10] (TDG1912, 24 h), 1 µg/mL (≈ 1.84 µM); in experiment [11], 2 µg/mL (≈ 3.69 µM); in experiment [12] (NCPF3281, 24 h) it was 0.156 µg/mL (≈ 0.287 µM). For the same compound, in experiment [13], the MIC was found to be 0.0313 µg/mL (≈ 0.0577 µM).
As to `OC(CN1CCCC(Nc2ccc(OCCN3CCOCC3)cc2)CC1)(Cn1cncn1)c1ccc(F)cc1F` (stereo not drawn) [Example 91], the MIC in [1] was determined as 4 µg/mL (≈ 7.19 µM); in experiment [2] it was 0.5 µg/mL (≈ 0.898 µM); in experiment [3] it was 0.5 µg/mL (≈ 0.898 µM); in [4], 4 µg/mL (≈ 7.19 µM); in experiment [5], 0.25 µg/mL (≈ 0.449 µM); in experiment [6], 2 µg/mL (≈ 3.59 µM). The MIC in [7] (setting [14]) was 0.125 µg/mL (≈ 0.225 µM); in [8], 8 µg/mL (≈ 14.4 µM); in experiment [9] it was 2 µg/mL (≈ 3.59 µM); in [10] (setting [15]), 4 µg/mL (≈ 7.19 µM); in experiment [11], 16 µg/mL (≈ 28.7 µM); in experiment [12] (setting [16]) it was 0.0156 µg/mL (≈ 0.0281 µM). Further, the MIC in experiment [13] amounted to 0.0625 µg/mL (≈ 0.112 µM).
In the case of `OC(CN1CCC(N2CCC(Nc3ccc(OCCN4CCOCC4)cc3)CC2)CC1)(Cn1cncn1)c1ccc(F)cc1F` (stereo not drawn) [Example 92], the MIC in [1] was 32 µg/mL (≈ 51.1 µM); in experiment [2], 8 µg/mL (≈ 12.8 µM); in experiment [3], 16 µg/mL (≈ 25.6 µM); in experiment [4], 32 µg/mL (≈ 51.1 µM); in experiment [5], 8 to 32 µg/mL (≈ 12.8 to 51.1 µM); in experiment [6], more than 32 µg/mL. In addition, the MIC in experiment [7] (setting [14]) is 4 µg/mL (≈ 6.39 µM); in experiment [8], more than 32 µg/mL; in experiment [9] it was 32 µg/mL (≈ 51.1 µM); in experiment [10] (setting [15]) it was 32 µg/mL (≈ 51.1 µM); in [11], more than 32 µg/mL; in experiment [12] (setting [16]) it was 2 µg/mL (≈ 3.2 µM). For the same compound, the MIC in experiment [13] lay within 2 to 8 µg/mL (≈ 3.2 to 12.8 µM).
Take `COCCOc1ccc(NC2CCN(CC(O)(Cn3cncn3)c3ccc(F)cc3F)CC2)cc1` (stereo not drawn) [Example 96]: the MIC in experiment [1] is 0.25 µg/mL (≈ 0.513 µM); in [2], 0.06 µg/mL (≈ 0.123 µM); in experiment [3], 0.06 µg/mL (≈ 0.123 µM); in experiment [4], 0.06 µg/mL (≈ 0.123 µM); in experiment [5], 0.0156 to 0.06 µg/mL (≈ 0.032 to 0.123 µM); in [6], 0.5 µg/mL (≈ 1.03 µM). Also, the MIC in [7] (setting [14]) was 4 µg/mL (≈ 8.2 µM); in experiment [8] it was 1 µg/mL (≈ 2.05 µM); in experiment [9], 0.06 µg/mL (≈ 0.123 µM); in experiment [10] (setting [15]), 0.125 µg/mL (≈ 0.256 µM); in [11], 4 µg/mL (≈ 8.2 µM); in [12] (setting [16]), 0.0078 to 0.0156 µg/mL (≈ 0.016 to 0.032 µM). In experiment [13], the MIC was 0.0156 µg/mL (≈ 0.032 µM).
In the case of `CN1CCC(Oc2ccc(NC3CCN(CC(O)(Cn4cncn4)c4ccc(F)cc4F)CC3)cc2)CC1` (stereo not drawn) [Example 98], the MIC in experiment [1] was more than 8 µg/mL; in experiment [2], 8 µg/mL (≈ 15.2 µM); in [3], 8 µg/mL (≈ 15.2 µM); in experiment [4], more than 8 µg/mL; in experiment [5], more than 8 µg/mL; in experiment [6], 8 µg/mL (≈ 15.2 µM). Also, the MIC in [7] (setting [14]) was 2 µg/mL (≈ 3.8 µM); in experiment [8], more than 8 µg/mL; in [9] it was more than 8 µg/mL; in experiment [10] (setting [15]) it was more than 8 µg/mL; in [11], 8 µg/mL (≈ 15.2 µM); in experiment [12] (setting [16]), 0.125 µg/mL (≈ 0.237 µM). Besides, the MIC in experiment [13] is 0.125 µg/mL (≈ 0.237 µM).
Consider `Cc1ccc(-c2ccc(NC3C[C@@H]4CN(CC(O)(Cn5cncn5)c5ccc(F)cc5F)C[C@@H]4C3)cc2)cc1F` (stereo partly drawn) [Example 99], for which the MIC is 32 µg/mL (≈ 58.4 µM) in experiment [1]; 1 to 4 µg/mL (≈ 1.83 to 7.3 µM) in [2]; 1 to 4 µg/mL (≈ 1.83 to 7.3 µM) in experiment [3]; 32 µg/mL (≈ 58.4 µM) in [4]; 0.125 to 16 µg/mL (≈ 0.228 to 29.2 µM) in experiment [5]; 1 µg/mL (≈ 1.83 µM) in experiment [6]. For the same compound, the MIC was 0.5 µg/mL (≈ 0.913 µM) in experiment [7] (setting [14]); more than 32 µg/mL in experiment [8]; 16 to 32 µg/mL (≈ 29.2 to 58.4 µM) in experiment [9]; 16 µg/mL (≈ 29.2 µM) in experiment [10] (setting [15]); 8 µg/mL (≈ 14.6 µM) in [11]; not above 0.03 µg/mL in [12] (setting [16]). Also, the MIC in experiment [13] is not above 0.03 µg/mL.

For the origin of these results see patent US20240246920A1, “TRIAZOLE DERIVATIVES WITH ANTIFUNGAL ACTIVITY” (King's College London, priority 2020, published 2024).
